Structures can show the parent of a compound that is named as a salt. Where two headings read alike, the source gives them in different places.
Assays:
primary thymocytes = assay: In vitro treatment of thymocytes in FBS, Ki-67; format: cell-based, mouse; conditions: FBS with saline plus modifier, vs saline cultures
[1] = test system: C57BL/6 mice fed high fat diet; assay: High fat diet obesity model; format: in vivo; conditions: for average reduction of intestinal length vs saline: entire intestines; for intestines vs saline (gross examination): from end of stomach to anus; for sizes of fat pads vs saline: gross; for loss of body weight: i.p. every other day, four doses, 3 days after final treatments, saline about 3%; for fold reduction of fat/bodyweight ratio vs saline / average fat/bodyweight ratio: i.p. four doses; for average fat/bodyweight ratio: saline 0.135
Procedure: The obesity model was similar to those previously described. (95, 96). Female C57BL/6 mice of 4 weeks age were acclimated at CRADL for 1 week. After the acclimation, mice were switched to Gamma-irradiated high fat diet (Research Diets, New Brunswick, N.J., USA) (60% calories from fat). After 4 weeks of high fat diet, the mice were switched back to regular diet, and treated with i.p. injection of saline or saline plus HCl or HOAc. The bodyweight of each mouse was recorded before each treatment, and at the end of the experiment.
In the obesity model of Example 10, after fed with high fat diet for 4 weeks, mice were weighed to record total body weight. The mice were switched to regular diet and randomly divided into groups to receive i.p. treatments with saline or saline plus HCl, HOAc or NaOH. The mice continued to receive i.p. treatments on every other day for 3 additional doses. Four days after the final treatments, mice were sacrificed, their total body weights were measured, fat pads, and internal organs were collected, weighed, and analyzed.
Obesity was induced in C57BL/6 mice by feeding young (5 weeks old) female mice with high fat diet for 4 weeks. The mice were then switched to normal diet and randomly divided into groups to receive i.p. treatments with saline or saline plus HCl, HOAc or NaOH every other day for a total of four doses. The mice were analyzed 3 days after the final treatments.

[2] = test system: inflammatory cells in the BALF; assay: Asthma model: BALF cellularity and cell differentials; format: in vivo, Balb/c mice; conditions: i.t. HCl or HOAc, i.p. NaOH, every other day x3; day 3 after final challenge; saline 3.06×10^6
[3] = test system: mucus secretion in the lungs; assay: Asthma model: PAS staining of lung tissue; conditions: i.t. HOAc or HCl; i.p. NaOH
[4] = test system: CD4 T cells in BALF and MLN; conditions: for Treg cells, % of total CD4 T cells, BALF: saline 7.46%; for Treg cells, % of total CD4 T cells, MLN: saline 11.80%
Procedure: (92, 93). […] For challenge, 2× concentrated solution was prepared by mixing 100 μg OVA protein and 1 μg […] peptide (Molecular Resources, Fort Collins, Colo., USA) in 30 μl saline per mouse, and kept on ice. Immediately before i.t. (intratracheal) injection the 30 μl 2×OVA solution was mixed with equal volume of 2× treatment solution (350 mM HOAc or HCl in saline) and instilled into the trachea of the mouse. The mice were challenged every other day for a total of 3 times.
The total mixture (60 μl) was instilled into the trachea of the mouse. The mice were treated every other day for a total of 3 times.
(§1) Cells were washed 3 times with PBS then stained with Zombie viability dyes at room temperature for 20 minutes. At the end of incubation, 10% volume of FBS was added to absorb excess Zombie dyes. After washes, the cells were stained with conjugated antibodies against surface antigens on ice. As specified in some experiments, the cells were subsequently stained with fluorochrome-conjugated Avidin. For Annexin V staining, cells were washed twice with plain PBS and once with Annexin V binging buffer (10 mM HEPES, pH7.4, 140 mM NaCl, 2.5 mM CaCl2)) after surface antigen staining, and incubated with fluorochrome-conjugated Annexin V in Annexin V binding buffer for 15 min at room temperature. The cells were washed twice in Annexin V binding buffer and resuspended in Annexin V binding buffer. 7-AAD was added to the cells before analyzed by flow cytometry. For Ki-67 and Foxp3 staining, lymphocytes (after Zombie dye and surface antigen staining) or tumor cells (without surface antigen staining) were fixed and permeabilized using Foxp3 staining buffer kit, then stained with PE-conjugated anti-mouse or human Ki-67 antibodies. (Biolegend, San Diego, Calif., USA). Stained and unstained cells were analyzed on Accuri C6 Flow Cytomer (Accuri Cytometers, Inc., Ann Arbor, Mich.), FACS Canto (BD Bioscience, San Jose, Calif., USA) and Attune™ cytometer (Invitrogen, Carlsbad, Calif.). Data analyses were carried out using FlowJo X.

Jurkat cells = test system: Jurkat cells
Procedure: Jurkat and Raji tumor cell lines were maintained in Complete RPMI-1640 Medium (RPMI-1640 plus 1× GlutaMAX, 100 U/ml Pen-Strep (Gibco Life Technologies, Grand Island, N.Y., USA), and 5% heat-inactivated fetal bovine serum (FBS) (Atlanta Biologicals, Flowery Branch, Ga., USA)) at 37° C. and 5% CO2. The tumor cells were washed 3 times with saline plus 1% FBS before in vitro treatments with saline or saline plus pH modifiers.
For studies of the effects of pH modifier on proliferating cells, primary thymocytes or lymph node cells (4×10^6 cells/ml) were incubated in FBS comprising 10% of saline or 87.5 mM HCl, HOAc or NaOH prepared in saline in 37° C. water bath for 5 hours before analyses. The tumor cells (2×10^6 cells/ml) were incubated in FBS comprising 10% saline or 87.5 mM HCl, HOAc, or NaOH prepared in saline in 37° C. water bath for 3-5 hours.
as §1, with “For Ki-67 and Foxp3 staining, lymphocytes (after Zombie dye and surface antigen staining) or tumor cells (without surface antigen staining) were fixed and permeabilized using Foxp3 staining buffer kit, then stained with PE-conjugated anti-mouse or human Ki-67 antibodies. (Biolegend, San Diego, Calif., USA).” left out, “Data analyses were carried out using FlowJo X.” left out

thymocytes = assay: Asthma model: thymus and thymocyte populations in vivo; parameters: species or system mice; conditions: for size of the thymus vs saline (gross examination): 3 days after final challenge and treatment; for percentage of Ki-67hi total thymocytes: saline 22.7%; for percentage of DP (CD4+CD8+) thymocyte subpopulation: saline 69.7%
Procedure: as §1
In the asthma model, OVA sensitized mice were challenged with OVA by i.t. injection every other day for 3 times. The mice received i.t. treatment with saline, HCl or HOAc at the same time as challenge, or i.p. treatment with NaOH 1 hour after the challenge. Thymuses were harvested 3 days after the final challenge and treatment. […] (FIG. 20a). […] The thymocytes can be divided into Ki-67 high, low and negative populations. (FIG. 20b).

[5] = test system: inflammatory infiltration in the lung tissues; assay: Asthma model: H&E staining of lung tissue; conditions: i.t. HOAc or HCl; i.p. NaOH
[6] = FBS with 10% of 87.5 mM modifier, 37° C., 3-5 hours, saline 73.4%

Row | Compound | Ki-67+ cells in thymocytes after in vitro treatment (primary thymocytes) | average reduction of intestinal length vs saline [1] | intestines vs saline (gross examination) [1] | sizes of fat pads vs saline [1] | loss of body weight [1] | fold reduction of fat/bodyweight ratio vs saline [1] | average fat/bodyweight ratio [1] | total inflammatory cells in the BALF (average) [2] | mucus secretion (PAS staining) in the lungs [3] | Treg cells, % of total CD4 T cells, BALF ([4]; BALF) | Treg cells, % of total CD4 T cells, MLN [4] | viability (live cells) of Jurkat cells (Jurkat cells; [6]) | size of the thymus vs saline (gross examination) (thymocytes) | inflammatory infiltration in the lungs (H&E) [5] | viability (live cells) of Jurkat cells (Jurkat cells; human, 8.75 mM) | decrease of total numbers of thymocytes vs saline (thymocytes; i.t. HOAc) | percentage of Ki-67hi total thymocytes (thymocytes) | percentage of DP (CD4+CD8+) thymocyte subpopulation (thymocytes) | CD44+ cells in Foxp3- CD4 T cells, BALF ([4]; BALF) | increase of total numbers of thymocytes vs saline (thymocytes; i.p. NaOH)
1 | Cl [HCl, hydrochloric acid] | almost no Ki-67^+ cells | about 31% | drastically shortened | much smaller | about 25% | 5 fold | 0.027 | 1.07×10^6 per mouse | only faint PAS staining | 4.45% | 9.12% | 22.1% | dramatically smaller | diminished |  |  |  |  |  | 
2 | CC(=O)O [HOAc, acetic acid] | almost no Ki-67^+ cells | ~12% | drastically shortened | much smaller | ~15% | 3 fold | 0.045 | 9.01×10^5 per mouse | only faint PAS staining | 7.18% | 11.53% |  | dramatically smaller | diminished | 34.3% | ~90% | 15.4% | 43.8% |  | 
3 | [Na+].[OH-] [NaOH, sodium hydroxide] | higher percentages of Ki-67^+ cells | about 2% | only slightly shortened | somewhat reduced | about 17% |  | 0.106 | 2.18×10^6 per mouse | no reduction of mucus secretion or PAS staining | 6.97% | 11.46% | 70.4% | similar | prominent in the perivascular areas, but not very noticeable in the peribronchial areas |  |  | 31.7% | 77.6% | 80.6% | about 28%
